Experiments:
Assay type in all cases: in vivo
[1] = system: Lolium multiflorum (Italian ryegrass); assay: Pre-emergence herbicidal effect, Italian ryegrass; conditions: after about 3 weeks
Excerpt: (§1) Seeds of monocotyledonous or dicotyledonous weed plants or crop plants are placed in sandy loam in wood-fiber pots and covered with soil. The compounds according to the invention, formulated in the form of wettable powders (WP), are then applied as aqueous suspension at a water application rate of 600 l/ha (converted) with the addition of 0.2% of wetting agent to the surface of the covering soil. After the treatment, the pots are placed in a greenhouse and kept under good growth conditions for the test plants. After about 3 weeks, the effect of the preparations is scored visually in comparison with untreated controls (herbicidal effect in percent (%): 100% activity=the plants have died, 0% activity=like control plants).

[2] = system: Setaria viridis (green foxtail); assay: Pre-emergence herbicidal effect, green foxtail; conditions: after about 3 weeks
Excerpt: as §1

[3] = system: Brassica napus (winter rape); assay: Pre-emergence crop plant compatibility, winter rape; conditions: after about 3 weeks
Excerpt: as §1

[4] = system: Alopecurus myosuroides (black-grass); assay: Pre-emergence herbicidal effect, black-grass; conditions: after about 3 weeks
Excerpt: as §1

[5] = system: Triticum aestivum (summer wheat); assay: Pre-emergence crop plant compatibility, summer wheat; conditions: scored visually after about 3 weeks
Excerpt: as §1

[6] = system: Echinochloa crus-galli (barnyard grass); assay: Pre-emergence herbicidal effect, barnyard grass; conditions: after about 3 weeks
Excerpt: as §1

[7] = system: Viola tricolor (wild pansy); assay: Pre-emergence herbicidal effect, wild pansy; conditions: after about 3 weeks
Excerpt: as §1

[8] = system: Avena fatua, Stellaria media, Echinochloa crus galli, Lolium multiflorum, Setaria viridis, Abutilon theophrasti, Amaranthus retroflexus, Viola tricolor …; assay: Pre-emergence herbicidal effect, harmful plants; conditions: pre-emergence method, application rate of 0.32 kg and less of active substance per hectare
Excerpt: as §1

[9] = system: Avena fatua, Echinochloa crus galli, Lolium multiflorum, Setaria viridis and Alopecurus myosuroides; assay: Post-emergence herbicidal effect, harmful plants; conditions: post-emergence method, application rate of 0.32 kg and less of active substance per hectare
Experimental: (§2) Seeds of monocotyledonous and dicotyledonous weed and crop plants are placed in sandy loam in wood fibre pots, covered with soil and cultivated in a greenhouse under good growth conditions. 2 to 3 weeks after sowing, the test plants are treated at the one-leaf stage. The compounds according to the invention, formulated in the form of wettable powders (WP), are then applied as aqueous suspension at a water application rate of 600 l/ha (converted) with the addition of 0.2% of wetting agent to the green parts of the plants. After the test plants have been kept in the greenhouse under optimum growth conditions for about 3 weeks, the activity of the preparations is rated visually in comparison to untreated controls (herbicidal activity in percent (%): 100% activity=the plants have died, 0% activity=like control plants).

Zea mays (corn) = assay: Post-emergence crop plant compatibility, corn; conditions: after about 3 weeks
Experimental: as §2

Avena fatua = assay: Post-emergence herbicidal effect, Avena fatua; conditions: after about 3 weeks
Experimental: as §2

[10] = system: Lolium multiflorum (Italian ryegrass); assay: Post-emergence herbicidal effect, Italian ryegrass; conditions: after about 3 weeks
Experimental: as §2

[11] = system: Setaria viridis (green foxtail); assay: Post-emergence herbicidal effect, green foxtail; conditions: after about 3 weeks
Experimental: as §2

Polygunum convolvulus = assay: Post-emergence herbicidal effect, Polygunum convolvulus; conditions: after about 3 weeks
Experimental: as §2

Stellaria media = assay: Post-emergence herbicidal effect, Stellaria media; conditions: after about 3 weeks
Experimental: as §2

[12] = 20 g of active compound/ha, formula (Ib) table
[13] = 80 g of active compound/ha, formula (Ib) table
[14] = 20 g of active compound/ha, formula (Ia) table
[15] = 80 g of active compound/ha, formula (Ia) table

Cn1nc(C(F)(F)F)c(C[S+]([O-])c2ncc(Br)s2)c1OC(F)F (racemic) [Racemate of 2637 (S config.) and 3725 (R config.), 5-bromo-2-({[5-(difluoromethoxy)-1-methyl-3-(trifluoromethyl)-1H-pyrazol-4-yl]methyl}sulfinyl)-1,3-thiazole]
herbicidal effect in percent, LOLMU [1, 12]: 0%
herbicidal effect in percent, LOLMU [1, 13]: 80%
herbicidal effect in percent, SETVI [2, 12]: 0%
herbicidal effect in percent, SETVI [2, 13]: 80%
herbicidal effect in percent, BRSNW ([3]; 20 g of active compound/ha): 0%
herbicidal effect in percent, BRSNW ([3]; 80 g of active compound/ha): 0%
herbicidal effect in percent, ALOMY ([4]; 20 g of active compound/ha): 30%
herbicidal effect in percent, ALOMY ([4]; 80 g of active compound/ha): 90%

[O-][S@@+](Cc1c(Cl)cccc1Cl)c1ncc(Cl)s1 [Compound 185]
herbicidal effect in percent, TRZAS ([5]; 20 g of active compound/ha): 0%
herbicidal effect in percent, TRZAS ([5]; 80 g of active compound/ha): 10%
herbicidal effect in percent, ECHCG ([6]; 20 g of active compound/ha): 90%
herbicidal effect in percent, ECHCG ([6]; 80 g of active compound/ha): 100%
herbicidal effect in percent, LOLMU [1, 14]: 70%
herbicidal effect in percent, LOLMU [1, 15]: 90%
herbicidal effect in percent, SETVI [2, 14]: 70%
herbicidal effect in percent, SETVI [2, 15]: 100%
herbicidal effect in percent, VIOTR ([7]; 20 g of active compound/ha): 60%
herbicidal effect in percent, VIOTR ([7]; 80 g of active compound/ha): 70%
herbicidal activity against harmful plants [8]: very good herbicidal activity
herbicidal activity against harmful plants [9]: very good herbicidal activity

[O-][S@@+](Cc1c(F)cccc1F)c1ncc(Br)s1 [Compound 259, 5-Bromo-2-[(S)-(2,6-difluorobenzyl)sulfinyl]-1,3-thiazole]
herbicidal activity against harmful plants [8]: very good herbicidal activity
herbicidal activity against harmful plants [9]: very good herbicidal activity

[O-][S@@+](Cc1c(Cl)cccc1Cl)c1ncc(Br)s1 [Compound 270]
herbicidal activity against harmful plants [8]: very good herbicidal activity
herbicidal activity against harmful plants [9]: very good herbicidal activity

[O-][S@+](Cc1c(Cl)cccc1Cl)c1ncc(Cl)s1 [Compound 1375]
herbicidal effect in percent, TRZAS ([5]; 20 g of active compound/ha): 0%
herbicidal effect in percent, TRZAS ([5]; 80 g of active compound/ha): 0%
herbicidal effect in percent, ECHCG ([6]; 20 g of active compound/ha): 0%
herbicidal effect in percent, ECHCG ([6]; 80 g of active compound/ha): 80%
herbicidal effect in percent, LOLMU [1, 14]: 0%
herbicidal effect in percent, LOLMU [1, 15]: 60%
herbicidal effect in percent, SETVI [2, 14]: 0%
herbicidal effect in percent, SETVI [2, 15]: 20%
herbicidal effect in percent, VIOTR ([7]; 20 g of active compound/ha): 60%
herbicidal effect in percent, VIOTR ([7]; 80 g of active compound/ha): 80%
herbicidal activity against harmful plants [8]: very good herbicidal activity
herbicidal activity against harmful plants [9]: very good herbicidal activity

[O-][S@+](Cc1c(F)cccc1F)c1ncc(Br)s1 [Compound 1449, 5-bromo-2-[(R)-(2,6-difluorobenzyl)sulfinyl]-1,3-thiazole]
herbicidal activity against harmful plants [8]: very good herbicidal activity
herbicidal activity against harmful plants [9]: very good herbicidal activity

[O-][S@+](Cc1c(Cl)cccc1Cl)c1ncc(Br)s1 [Compound 1460]
herbicidal activity against harmful plants [8]: very good herbicidal activity

Cn1nc(C(F)(F)F)c(C[S@+]([O-])c2ncc(Cl)s2)c1OC(F)F [Compound 2555]
herbicidal activity against harmful plants [8]: very good herbicidal activity
herbicidal activity against harmful plants [9]: very good herbicidal activity

Cn1nc(C(F)(F)F)c(C[S@+]([O-])c2ncc(Br)s2)c1Cl [Compound 2632, 5-Bromo-2-[(S)-{[5-chloro-1-methyl-3-(trifluoromethyl)-1H-pyrazol-4-yl]methyl}sulfinyl]-1,3-thiazole]
herbicidal activity against harmful plants [8]: very good herbicidal activity
herbicidal activity against harmful plants [9]: very good herbicidal activity

Cn1nc(C(F)(F)F)c(C[S@+]([O-])c2ncc(Br)s2)c1OC(F)F [Compound 2637, 5-Bromo-2-[(S)-{[5-(difluoromethoxy)-1-methyl-3-(trifluoromethyl)-1H-pyrazol-4-yl]methyl}sulfinyl]-1,3-thiazole]
herbicidal effect in percent, LOLMU [1, 12]: 10%
herbicidal effect in percent, LOLMU [1, 13]: 100%
herbicidal effect in percent, SETVI [2, 12]: 80%
herbicidal effect in percent, SETVI [2, 13]: 90%
herbicidal effect in percent, BRSNW ([3]; 20 g of active compound/ha): 0%
herbicidal effect in percent, BRSNW ([3]; 80 g of active compound/ha): 0%
herbicidal effect in percent, ALOMY ([4]; 20 g of active compound/ha): 60%
herbicidal effect in percent, ALOMY ([4]; 80 g of active compound/ha): 90%
herbicidal activity against harmful plants [8]: very good herbicidal activity
herbicidal activity against harmful plants [9]: very good herbicidal activity

Cn1nc(C(F)(F)F)c(C[S@+]([O-])c2ncc(Br)s2)c1OCC(F)(F)F [Compound 2640]
herbicidal activity against harmful plants [8]: very good herbicidal activity
herbicidal activity in percent, ZEAMX (Zea mays (corn); 20 g of active compound/ha): 0%
herbicidal activity in percent, ZEAMX (Zea mays (corn); 80 g of active compound/ha): 0%
herbicidal activity in percent, AVEFA (Avena fatua; 20 g of active compound/ha): 20%
herbicidal activity in percent, AVEFA (Avena fatua; 80 g of active compound/ha): 90%
herbicidal activity in percent, LOLMU ([10]; 20 g of active compound/ha): 60%
herbicidal activity in percent, LOLMU ([10]; 80 g of active compound/ha): 100%
herbicidal activity in percent, SETVI ([11]; 20 g of active compound/ha): 100%
herbicidal activity in percent, SETVI ([11]; 80 g of active compound/ha): 100%
herbicidal activity in percent, POLCO (Polygunum convolvulus; 20 g of active compound/ha): 20%
herbicidal activity in percent, POLCO (Polygunum convolvulus; 80 g of active compound/ha): 100%
herbicidal activity in percent, STEME (Stellaria media; 20 g of active compound/ha): 10%
herbicidal activity in percent, STEME (Stellaria media; 80 g of active compound/ha): 90%
herbicidal activity against harmful plants [9]: very good herbicidal activity

Cn1nc(C(F)(F)F)c(C[S@+]([O-])c2ncc(I)s2)c1OC(F)F [Compound 2719]
herbicidal activity against harmful plants [8]: very good herbicidal activity
herbicidal activity against harmful plants [9]: very good herbicidal activity

Cn1nc(C(F)(F)F)c(C[S@@+]([O-])c2ncc(Cl)s2)c1OC(F)F [Compound 3643]
herbicidal activity against harmful plants [8]: very good herbicidal activity
herbicidal activity against harmful plants [9]: very good herbicidal activity

Cn1nc(C(F)(F)F)c(C[S@@+]([O-])c2ncc(Br)s2)c1Cl [Compound 3720, 5-bromo-2-[(R)-{[5-chloro-1-methyl-3-(trifluoromethyl)-1H-pyrazol-4-yl]methyl}sulfinyl]-1,3-thiazole]
herbicidal activity against harmful plants [8]: very good herbicidal activity
herbicidal activity against harmful plants [9]: very good herbicidal activity

Cn1nc(C(F)(F)F)c(C[S@@+]([O-])c2ncc(Br)s2)c1OC(F)F [Compound 3725, 5-bromo-2-[(R)-{[5-(difluoromethoxy)-1-methyl-3-(trifluoromethyl)-1H-pyrazol-4-yl]methyl}sulfinyl]-1,3-thiazole]
herbicidal effect in percent, LOLMU [1, 12]: 0%
herbicidal effect in percent, LOLMU [1, 13]: 0%
herbicidal effect in percent, SETVI [2, 12]: 0%
herbicidal effect in percent, SETVI [2, 13]: 0%
herbicidal effect in percent, BRSNW ([3]; 20 g of active compound/ha): 0%
herbicidal effect in percent, BRSNW ([3]; 80 g of active compound/ha): 0%
herbicidal effect in percent, ALOMY ([4]; 20 g of active compound/ha): 0%
herbicidal effect in percent, ALOMY ([4]; 80 g of active compound/ha): 20%
herbicidal activity against harmful plants [8]: very good herbicidal activity
herbicidal activity against harmful plants [9]: very good herbicidal activity

Cn1nc(C(F)(F)F)c(C[S@@+]([O-])c2ncc(Br)s2)c1OCC(F)(F)F [Compound 3728]
herbicidal activity against harmful plants [8]: very good herbicidal activity
herbicidal activity in percent, ZEAMX (Zea mays (corn); 20 g of active compound/ha): 0%
herbicidal activity in percent, ZEAMX (Zea mays (corn); 80 g of active compound/ha): 0%
herbicidal activity in percent, AVEFA (Avena fatua; 20 g of active compound/ha): 0%
herbicidal activity in percent, AVEFA (Avena fatua; 80 g of active compound/ha): 10%
herbicidal activity in percent, LOLMU ([10]; 20 g of active compound/ha): 0%
herbicidal activity in percent, LOLMU ([10]; 80 g of active compound/ha): 0%
herbicidal activity in percent, SETVI ([11]; 20 g of active compound/ha): 10%
herbicidal activity in percent, SETVI ([11]; 80 g of active compound/ha): 10%
herbicidal activity in percent, POLCO (Polygunum convolvulus; 80 g of active compound/ha): 10%
herbicidal activity in percent, STEME (Stellaria media; 20 g of active compound/ha): 0%
herbicidal activity in percent, STEME (Stellaria media; 80 g of active compound/ha): 10%
herbicidal activity against harmful plants [9]: very good herbicidal activity

Source: US8754234B2, “Chiral 2-(benzylsulfinyl)thiazole derivatives and 2-[(1H-pyrazol-4-ylmethyl)sulfinyl]thiazole derivatives, processes for their preparation and their use as herbicides and plant growth regulators” (Bayer Cropscience AG, priority 2007, dated 2014)
